Results: patent US20210324357A1, “DEGRADATION DOMAIN MODIFICATIONS FOR SPATIO-TEMPORAL CONTROL OF RNA-GUIDED NUCLEASES” (THE BRIGHAM AND WOMEN'S HOSPITAL, INC., priority 2018, published 2021)
Entries after “also recorded” stand apart in the source; their conditions may differ.

Tests used:
[1] = tested on: FKBP-Cas9 in U2OS.eGFP-PEST cells; assay: Analysis of Cas9 nuclease activity via genomic eGFP-PEST disruption in U2OS cells; format: cell-based, human; settings: for NtLp 2xFKBP Cas9 activity (% eGFP disruption): increasing amount of degrader 1.4-1000 nM
Source text: In some embodiments, a quantitative human cell-based reporter assay that enables rapid quantitation of targeted nuclease activities is used to characterize off-target cleavage of Cas9-based RNA guided endonucleases. In this assay, the activities of nucleases targeted to a single integrated EGFP reporter gene can be quantified by assessing loss of fluorescence signal in human U2OS.EGFP cells caused by inactivating frameshift insertion/deletion (indel) mutations introduced by error prone non-homologous end-joining (NHEJ) repair of nuclease-induced double-stranded breaks (DSBs).
In one protocol, U2OS.EGFP cells harboring a single integrated copy of an EGFP-PEST fusion gene are cultured (see e.g., Reyon et al., Nat Biotech 30, 460-465 (2012), which is herein incorporated by reference in its entirety). For transfections, 200,000 cells are nucleofected with gRNA expression plasmid and pJDS246 together with 30 ng of a Td-tomato-encoding plasmid using the SE Cell Line 4D-Nucleofector™ X Kit (Lonza) according to the manufacturer's protocol. Cells are analyzed 2 days post-transfection using a BD LSRII flow cytometer. Transfections for optimizing gRNA/Cas9 plasmid concentration are performed in triplicate and all other transfections are performed in duplicate.
In plasmid delivery, approximately 200,000 U20S.eGFP-PEST cells were nucleofected with 300 ng of Cas9 and sgRNA expression plasmids (NtLp 2xFKBP, NtCt 2xFKBP, LpCt 2xFKBP, and 3xFKBP) using the SE Cell Line 4D-Nucleofector X Kit (Lonza) according to the manufacturer's protocol. Approximately 12,000 transfected cells per well were plated in a 96-well plate (Corning 3904) and incubated with dTAG 47 at 1000 nM, 333 nM, 111 nM, 37 nM, 12 nM, 4 nM, 1.4 nM at 37° C. for 48 hrs. In RNP delivery, 15 pmol pre-formed RNP (Cas9 and NtLp 2xFKBP) were nucleofected and followed the protocol described above. Cells were fixed using 4% paraformaldehyde and HCS NuclearMask Blue Stain. The plate was imaged with IXM ImageXpress Automated High Content Microscope at 4× magnification under two excitation channels (blue and green). Images were analyzed in the MetaXpress software.

[2] = tested on: FKBP-SpCas9 constructs (NtLp 2xFKBP, NtCt 2xFKBP, LpCt 2xFKBP, 3xFKBP) in HEK293FT cells; assay: Western blot analysis of FKBP-SpCas9 degradation; format: cell-based; settings: increasing amount of dTAG-47 (0.04-3.3 uM), 24h, tubulin loading control
Protocol: HEK293 or NIH3T3 were transfected with pX330 FKBP-Cas9 plasmid using Lipofectamine 2000 or Lipofectamine 3000 to the manufacturer's protocol accordingly. 24 hours after transfection, cells transiently expressing the different constructs (NtLp 2xFKBP, NtCt 2xFKBP, LpCt 2xFKBP, and 3xFKBP) were incubated in either the absence or the presence of dTAG 47 (3.3 uM, 1.1 uM, 0.37 uM, 0.12 uM, 0.042 uM) for 24h before harvesting. Cells were washed with PBS and proceed to lysis in RIPA buffer. The cell suspensions were centrifuged at 16,000 g for 30 min at 4° C. 20 ug of supernatant were electrophoresed on 4-12% Bis-Tris gel with SDS-Tris running buffer. The protein bands were transferred to nitrocellulose membrane at 100V for 1 h and probed with mouse anti-Cas9 antibody (Abcam) and rabbit anti-tubulin as loading control (Abcam). After blocking and incubation with primary antibodies, membranes were incubated with 680-nm or 800-nm fluorophore labeled secondary antibodies. Protein bands were detected using LI-COR Bioisciences Odyssey Imager and analyzed by Image Studeio Lite (LI-COR Biosciences).

[3] = tested on: NtLp 2xFKBP Cas9 RNP in S2 cells; assay: Analysis of Cas9 nuclease activity in Drosophila S2 cell via genomic eGFP disruption; format: cell-based; settings: RNP delivery, dTAG-47 1000 nM, 10 nM, 0 nM, 48 hrs
Protocol: Approximately 200,000 S2 cells were nucleofected with 15 pmol pre-formed Cas9 RNP (NtLp 2xFKBP) using SE Cell Line 4S-Nucleofector X Kit (Lonza). Approximately 70,000 transfected S2 cells per well were plated in 96-well plate and incubated with 1000 nM and 10 nM dTAG 47. After incubation at room temperature for 48 hrs, cells were stained with HCS Nuclear Mask Blue stain, and imaged with IXM ImageXpress Automated Hifh Content Microscope at 4× magnification under two excitation channels (blue and green).

CC[C@H](C(=O)N1CCCC[C@H]1C(=O)O[C@H](CCc1ccc(OC)c(OC)c1)c1ccccc1OCC(=O)NCCCCCCOc1cccc2c1C(=O)N(C1CCC(=O)NC1=O)C2=O)c1cc(OC)c(OC)c(OC)c1 (stereo partly shown) [dTAG-13]
potency in reducing NtLp 2xFKBP Cas9 activity ([1]; U2OS cells, RNP delivery, comparison of FIG. 4A and 4B): less potent than dTAG-47 | NtLp 2xFKBP Cas9 activity (% eGFP disruption) ([1]; U2OS cells, RNP delivery): reduced but not as significant | potency in inducing degradation (eGFP disruption assay of 4 FKBP-Cas9) ([1]; plasmid delivery, comparison of FIG. 3A and 3B): less potent than dTAG-47

CC[C@H](C(=O)N1CCCC[C@H]1C(=O)O[C@H](CCc1ccc(OC)c(OC)c1)c1ccccc1OCC(=O)NCCCCCCCCNc1ccc2c(c1)C(=O)N(C1CCC(=O)NC1=O)C2=O)c1cc(OC)c(OC)c(OC)c1 (stereo partly shown) [dTAG-47]
Cas9 protein detected (degradation of FKBP-SpCas9) [2]: less Cas9 protein was detected; also recorded: less Cas protein was detected | NtLp 2xFKBP Cas9 activity (% eGFP disruption) ([1]; U2OS cells, RNP delivery): reduced significantly | potency in reducing Cas9 activity ([1]; plasmid delivery and RNP delivery (FIGS. 3A-3B, 4A-4B)): more potent in reducing Cas9 activity | eGFP disruption by NtLp 2xFKBP Cas9 RNP [3]: less eGFP disrupted
